From patent US20250099557A1, “ANTIBIOTIC PHARMACEUTICAL COMPOSITION CAPABLE OF SUBCUTANEOUS ADMINISTRATION” (SHANGHAI BAO PHARMACEUTICALS CO., LTD., priority 2021, published 2025)

Tests used:
[1] = Compatibility study of HAase and antibiotic in solution: appearance of the solution; type: physicochemical; conditions: 8 solutions of antibiotic (two concentrations) with HAase 150-6000 units/ml in physiological saline
Protocol: (§1) The compatibility of HAase and an antibiotic was studied by preparing a solution comprising the two substances. A dry Meropenem power for injection was dissolved in physiological saline to give a concentration of 5 mg/ml and 50 mg/ml, and then HAase was added to give a final concentration of 150, 500, 2000, and 6000 units/ml respectively. After preparation, the solution was left to stand at room temperature for 15 min. The appearance of the solution was observed, and the concentration of HAase was determined.
as §1, with “dry Ceftriaxone sodium” for “dry Meropenem”, “of 50” for “of 5”, “and 250” for “and 50”
as §1, with “dry Azithromycin” for “dry Meropenem”, “of 10” for “of 5”, “and 100” for “and 50”
as §1, with “dry Cefradine powder” for “dry Meropenem power”, “of 50” for “of 5”, “and 250” for “and 50”
as §1, with “dry Teicoplanin powder” for “dry Meropenem power”, “of 10” for “of 5”, “and 70” for “and 50”
as §1, with “dry Ceftazidime powder” for “dry Meropenem power”, “of 20” for “of 5”, “and 200” for “and 50”
as §1, with “dry Ertapenem” for “dry Meropenem”, “of 30” for “of 5”, “and 300” for “and 50”
The compatibility of HAase and an antibiotic was studied by preparing a solution comprising the two substances. A dry Polymyxin B powder for injection was dissolved in physiological saline to give a concentration of 50,000 units/ml and 250,000 units/ml, and then HAase was added to give a final concentration of 150, 500, 2000, and 6000 units/ml respectively.

HAase [2] = target: T1, HAase (Homo sapiens, UniProt P38567); assay: Compatibility study of HAase and antibiotic in solution: HAase activity; type: biochemical; conditions: 15 min room temperature; for Final concentration of HAase (units/ml) 150: HAase added to 150 units/ml; for Final concentration of HAase (units/ml) 500: HAase added to 500 units/ml; for Final concentration of HAase (units/ml) 2000: HAase added to 2000 units/ml; for Final concentration of HAase (units/ml) 6000: HAase added to 6000 units/ml; for interference with the activity of HAase: antibiotic and HAase in physiological saline
T1 construct: made in house
T1 sequence (P38567 36-482): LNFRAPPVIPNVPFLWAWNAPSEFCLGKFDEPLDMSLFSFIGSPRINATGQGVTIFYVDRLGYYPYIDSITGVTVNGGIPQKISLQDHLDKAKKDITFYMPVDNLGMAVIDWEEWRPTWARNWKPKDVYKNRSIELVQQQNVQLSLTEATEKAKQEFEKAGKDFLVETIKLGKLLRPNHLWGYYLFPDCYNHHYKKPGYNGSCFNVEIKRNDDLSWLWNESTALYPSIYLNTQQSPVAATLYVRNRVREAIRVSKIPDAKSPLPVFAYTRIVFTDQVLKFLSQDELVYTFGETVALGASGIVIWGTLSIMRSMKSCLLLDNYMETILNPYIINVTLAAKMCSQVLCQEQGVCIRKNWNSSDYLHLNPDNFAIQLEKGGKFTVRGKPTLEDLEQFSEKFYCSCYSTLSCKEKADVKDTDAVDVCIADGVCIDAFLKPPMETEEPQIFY
Protocol: “HAase activity refers to the ability of HAase to catalytically cleave hyaluronic acid. The Chinese Pharmacopoeia provides a method for determining the HAase activity, indirectly by measuring the amount of remaining higher-molecular-weight hyaluronic acid substrate after the enzyme is allowed to catalytically cleave hyaluronic acid at 37° C. for 30 min. A standard reference solution can be used in the assay to determine the relative activity (in units) of any HAase. In-vitro assays for the determination of HAase are known in the art. Exemplary assays include micro-turbidimetric assay described below, which indirectly measures the cleavage of hyaluronic acid by HAase by detecting an insoluble precipitate formed when uncleaved hyaluronic acid binds to serum albumin. The reference standard can be used, for example, to generate a standard curve, so as to determine the activity of the tested HAase in units.
as §1
as §1, with “dry Ceftriaxone sodium” for “dry Meropenem”, “of 50” for “of 5”, “and 250” for “and 50”
as §1, with “dry Azithromycin” for “dry Meropenem”, “of 10” for “of 5”, “and 100” for “and 50”
as §1, with “dry Cefradine powder” for “dry Meropenem power”, “of 50” for “of 5”, “and 250” for “and 50”
as §1, with “dry Teicoplanin powder” for “dry Meropenem power”, “of 10” for “of 5”, “and 70” for “and 50”
as §1, with “dry Ceftazidime powder” for “dry Meropenem power”, “of 20” for “of 5”, “and 200” for “and 50”, “min.” for “min. The appearance of the solution was observed, and the concentration of HAase was determined.”

HAase [3] = target: T1, HAase; assay: as above; type: biochemical; conditions: antibiotic 50,000 units/ml in physiological saline; HAase added to 150 units/ml; 15 min room temperature
[4] = antibiotic 10 mg/ml in physiological saline
[5] = antibiotic 100 mg/ml in physiological saline
[6] = antibiotic 5 mg/ml in physiological saline
[7] = antibiotic 50 mg/ml in physiological saline
[8] = antibiotic 50,000 units/ml in physiological saline
[9] = antibiotic 250,000 units/ml in physiological saline

CC[C@H]1OC(=O)[C@H](C)[C@@H](O[C@H]2C[C@@](C)(OC)[C@@H](O)[C@H](C)O2)[C@H](C)[C@@H](O[C@@H]2O[C@H](C)C[C@H](N(C)C)[C@H]2O)[C@](C)(O)C[C@@H](C)CN(C)[C@H](C)[C@@H](O)[C@]1(C)O [Azithromycin]
appearance of the solution [1]: clear and transparent | Final concentration of HAase (units/ml) 150 (HAase [2]; [4]): 152 units/ml | Final concentration of HAase (units/ml) 500 (HAase [2]; [4]): 482 units/ml | Final concentration of HAase (units/ml) 2000 (HAase [2]; [4]): 1651 units/ml | Final concentration of HAase (units/ml) 6000 (HAase [2]; [4]): 6140 units/ml | Final concentration of HAase (units/ml) 150 (HAase [2]; [5]): 140 units/ml | Final concentration of HAase (units/ml) 500 (HAase [2]; [5]): 500 units/ml | Final concentration of HAase (units/ml) 2000 (HAase [2]; [5]): 1760 units/ml | Final concentration of HAase (units/ml) 6000 (HAase [2]; [5]): 5818 units/ml | interference with the activity of HAase (HAase [2]): does not interfere with the activity of HAase

C[C@@H](O)[C@H]1C(=O)N2C(C(=O)O)=C(S[C@@H]3CN[C@H](C(=O)N(C)C)C3)[C@H](C)[C@H]12 [Meropenem]
appearance of the solution [1]: clear and transparent | Final concentration of HAase (units/ml) 150 (HAase [2]; [6]): 150 units/ml | Final concentration of HAase (units/ml) 500 (HAase [2]; [6]): 511 units/ml | Final concentration of HAase (units/ml) 2000 (HAase [2]; [6]): 1979 units/ml | Final concentration of HAase (units/ml) 6000 (HAase [2]; [6]): 6271 units/ml | Final concentration of HAase (units/ml) 150 (HAase [2]; [7]): 145 units/ml | Final concentration of HAase (units/ml) 500 (HAase [2]; [7]): 491 units/ml | Final concentration of HAase (units/ml) 2000 (HAase [2]; [7]): 1984 units/ml | Final concentration of HAase (units/ml) 6000 (HAase [2]; [7]): 6121 units/ml | interference with the activity of HAase (HAase [2]): does not interfere with the activity of HAase

Polymyxin B
appearance of the solution [1]: clear and transparent | Final concentration of HAase (units/ml) 150 (HAase [3]): 149 units/ml | Final concentration of HAase (units/ml) 500 (HAase [2]; [8]): 488 units/ml | Final concentration of HAase (units/ml) 2000 (HAase [2]; [8]): 2126 units/ml | Final concentration of HAase (units/ml) 6000 (HAase [2]; [8]): 5899 units/ml | Final concentration of HAase (units/ml) 150 (HAase [2]; [9]): 151 units/ml | Final concentration of HAase (units/ml) 500 (HAase [2]; [9]): 501 units/ml | Final concentration of HAase (units/ml) 2000 (HAase [2]; [9]): 2014 units/ml | Final concentration of HAase (units/ml) 6000 (HAase [2]; [9]): 6090 units/ml | interference with the activity of HAase (HAase [2]): does not interfere with the activity of HAase
